Data as given in patent US20240383869A1, “ARYLACETYL INHIBITORS OF TG2 AND USES THEREOF” (UNIVERSITY OF OTTAWA, priority 2021, published 2024).
In brackets after ≈: the same amount, converted by molar mass.

How the values were obtained:
hTG6 = molecular target: T1, hTG6 (Homo sapiens, UniProt O95932); experiment: Colorimetric transamidase activity assay, isozyme selectivity; type: biochemical; conditions: normalized [I]/α
T1 sequence (O95932 1-706): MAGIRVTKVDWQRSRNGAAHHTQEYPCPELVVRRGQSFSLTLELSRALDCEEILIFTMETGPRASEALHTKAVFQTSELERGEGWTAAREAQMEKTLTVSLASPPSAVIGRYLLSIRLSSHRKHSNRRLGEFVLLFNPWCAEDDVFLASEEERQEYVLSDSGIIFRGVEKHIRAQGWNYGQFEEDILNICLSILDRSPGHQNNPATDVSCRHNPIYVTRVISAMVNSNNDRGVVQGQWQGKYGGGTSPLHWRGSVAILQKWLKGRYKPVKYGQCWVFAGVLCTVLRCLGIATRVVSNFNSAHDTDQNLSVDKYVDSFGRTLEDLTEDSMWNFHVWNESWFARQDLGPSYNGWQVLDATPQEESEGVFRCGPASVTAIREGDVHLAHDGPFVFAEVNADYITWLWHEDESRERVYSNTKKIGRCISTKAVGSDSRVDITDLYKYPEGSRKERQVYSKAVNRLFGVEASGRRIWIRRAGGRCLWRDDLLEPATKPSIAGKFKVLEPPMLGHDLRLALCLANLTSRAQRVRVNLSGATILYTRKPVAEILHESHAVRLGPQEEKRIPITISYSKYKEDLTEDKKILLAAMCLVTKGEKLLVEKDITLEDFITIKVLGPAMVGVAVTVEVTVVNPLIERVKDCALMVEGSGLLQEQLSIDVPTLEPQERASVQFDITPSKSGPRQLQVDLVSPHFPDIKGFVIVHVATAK
Procedure: Colorimetric transamidase activity assay. The activities of hTG1, hTG2 and hTG6 were measured via a colorimetric assay using the chromogenic substrate Cbz-Glu(γ-p-nitrophenyl ester)Gly (AL5), as described (Leblanc, A. et al., “Kinetic studies of guinea pig liver transglutaminase reveal a general-base-catalyzed deacylation mechanism.” Biochemistry 2001, 40 (28), 8335-8342). Assays were conducted at 25° C. in 50 mM MOPS buffer (pH 6.95) containing 7.5 mM CaCl2. […] Stock solutions of the inhibitors were made in water ranging in concentration from 100-500 μM. The reaction was initiated with the addition of enzyme, 0.10 μM hTG1, 0.25 μM hTG2 (4.6 mU/mL) or 0.32 μM hTG6. Formation of hydrolysis product, p-nitrophenolate (pNP), was monitored at 405 nm in a polystyrene 96-well microplate using a BioTek Synergy 4 plate reader. The observed first-order rate constants of inactivation (kobs) were determined via non-linear regression fit to a mono-exponential model (Eqn 1) of absorbance versus time curves. These rate constants (kobs) were in turn fit to a saturation kinetics model (Eqn 2), by non-linear regression, providing the kinetic parameters kinact and KI, as previously described by Stone and Hofsteenge (Stone, S. R. and Hofsteenge, J., “Specificity of activated human protein C.” Biochem. J. 1985, 230 (2), 497-502). […] Experiments were completed in triplicate at minimum.

Kinetic solubility = type: physicochemical; conditions: kinetic from dmso stock
Plasma stability = type: in vitro ADME
[1] = Metabolic stability in human hepatocyte model; type: in vitro ADME; conditions: hepatocytes; for hepatocyte CLint: calculated intrinsic clearance; for half-life: read-out: Hepatocyte t½
Procedure: The metabolic stabilities of inhibitors 72 and 74 were also evaluated in a human hepatocyte model. The half-lives and calculated intrinsic clearance shown in Table 6 are indicative of moderate stability.

Protein binding = type: in vitro ADME
[2] = PAMPA passive diffusion across a lipid membrane; type: in vitro ADME
Procedure: Passive diffusion across a lipid membrane was measured by PAMPA for both inhibitors 72 and 74. The values shown in Table 6 indicate both compounds were at least moderately permeant.

MDCK − MDR1 = experiment: MDCK-MDR1 permeability; type: in vitro ADME; conditions: for MDCK − MDR1 Papp (A→B): apical to basolateral; for MDCK − MDR1 Papp (B→A): basolateral to apical
P-gp (MDR1) = experiment: MDCK-MDR1 permeability; type: in vitro ADME; conditions: dog, MDCK-MDR1
SCC-13 cells = experiment: ECS cell invasion through Matrigel (Transwell); type: cell-based; conditions: 0-100 μM inhibitor, 18 h, read-out: EC50 for inhibition of ECS invasion
Procedure: One well-known property of tumour-initiating cells associated with cancer metastasis is the enhanced ability to invade Matrigel (collagen). For example, it has been shown that epidermal cancer stem (ECS) cells invade Matrigel more efficiently than non-stem cancer cells, and that these properties are associated with enhanced tumour formation (Adhikary, G. et al., PLoS ONE 2013, 8, e84324. https://doi.org/10.1371/journal.pone.0084324). We have shown previously that ˜20 μM of NC9 and 3.9 μM of VA4 can reduce ECS cell invasion through Matrigel by ˜50% relative to vehicle-treated cells (Akbar, A. et al., J. Med. Chem. 2017, 60, 7910-7927. https://doi.org/10.1021/acs.jmedchem.7b01070; Fisher, M. L. et al., Oncotarget 2015, 6, 20525-20539. https://doi.org/10.18632/oncotarget.3890).
Materials and Methods for cell invasion data. To measure cell invasion, Matrigel (Corning, catalogue no. 354234) was diluted to 250 μg/mL and 120 μL was added to the upper chambers of a Transwell plate (Corning, no. 353097, 1-cm diameter, 8-μm pore size) and allowed to solidify. SCC-13 cells were suspended in spheroid medium (Fisher, M. L. et al., Cancer Res. 2016, 76, 7265-7275. https://doi.org/10.1158/0008-5472.can-16-2032; Adhikary, G. et al., Carcinogenesis 2015, 36, 800-810. https://doi.org/10.1093/carcin/bgv064) containing 1% foetal calf serum (FCS), and 20,000 cells were plated into each upper chamber atop the Matrigel. The bottom chamber contained spheroid medium supplemented with 10% FCS and 0-100 μM of inhibitor. After incubation for 18 h in a 37° C. incubator, cells in the top chamber were removed with a swab and cells on the lower surface of the membrane were fixed with 4% paraformaldehyde and the nuclei were stained with 4′,6-diamidino-2-phenylindole. Cell number was counted in multiple fields (n=4) using a fluorescence microscope, normalized with respect to the number counted in the presence of vehicle only, and expressed as mean±standard deviation.

Row | Compound | inhibition of TG6 (hTG6) | solubility kinetic (Kinetic solubility) [µM] | Plasma t½ (Plasma stability) [h] | hepatocyte CLint [1] [µL/min/1e6 cells] | half-life [1] [h] | Protein Binding (Protein binding) [%] | Protein Binding Recovery (Protein binding) [%] | PAMPA −Log [Pe (cm/s)] [2] | MDCK − MDR1 Efflux Ratio (MDCK − MDR1) | MDCK − MDR1 Papp (A→B) (MDCK − MDR1) | MDCK − MDR1 Papp (B→A) (MDCK − MDR1) | efflux ratio (P-gp (MDR1)) | EC50 (SCC-13 cells) [µM]
1 | C=CC(=O)NCCCC[C@H](NC(=O)OCc1ccccc1)C(=O)N1CCN(C(=O)c2cccc3ccccc23)CC1 [AA9, reference compound] | none of these inhibitors showed any detectable inhibition |  |  |  |  |  |  |  |  |  |  |  | 
2 | C=CC(=O)NCCCC[C@H](NC(=O)Cc1ccccc1C)C(=O)N1CCN(C(=O)c2cccc3ccccc23)CC1 [Inhibitor 74, (S)-N-(6-(4-(1-naphthoyl)piperazin-1-yl)-5-(2-(2-methylphenyl)acetamido)-6-oxohexyl)acrylamide] | none of these inhibitors showed any detectable inhibition | 39 (≈ 21.6 µg/mL) | 9.47 | 5.58 | 4.18 | 85 | 93 | 5.03 | 51.6 | 0.32 10^−6 cm/s | 16.5 10^−6 cm/s | > 50 | 119 ± 5
3 | C=CC(=O)NCCCC[C@H](NC(=O)Cc1ccccc1F)C(=O)N1CCN(C(=O)c2cccc3ccccc23)CC1 [Inhibitor 72, (S)-N-(6-(4-(1-naphthoyl)piperazin-1-yl)-5-(2-(2-fluorophenyl)acetamido)-6-oxohexyl)acrylamide] | none of these inhibitors showed any detectable inhibition |  | 17.92 | 2.37 | 9.73 | 84 | 86 | 5.44 |  | 0.29 10^−6 cm/s | 18.2 10^−6 cm/s |  | 77
